According to patent US20260199371A1, “COORDINATION COMPOUND, COMPOSITIONS, AND USES THEREOF FOR TREATING CANCERS” (HUEIYUAN BIOTECH LLC, priority 2023, published 2026):

Experiments:
[1] = tested on: EMT markers in LoVo-parental cells; conditions: qRT-PCR
Source text: (§1) Vimentin and E-cadherin are molecular markers linked to tumor progression through their roles in EMT, which is a pathological process contributing to migration and invasion of cancer cells and tumor progression. Vimentin is a key component of intermediate filaments, which helps maintain cellular integrity and resistance to stress. E-cadherin plays a role in maintaining epithelial phenotypes by mediating contact inhibition when cells proliferate and reach confluence. To further investigate the influence of the compound (II) on EMT marker expression, western blotting, immunofluorescence detection, and quantitative real-time reverse transcription polymerase chain reaction (qRT-PCR) were performed in LoVo-parental and LoVo-OXAR cells treated with various doses of the compound (II) for 24 hours.
(§2) Total RNA from the cells after the indicated treatments was extracted using the GeneJET RNA purification kit (ThermoFisher Scientific, Lithuania) and reverse transcribed to cDNA using a GScript First-Strand Synthesis Kit, a cDNA synthesis kit, and Oligo-dT primers according to the manufacturer's instructions. RT-PCR was performed using ORA^T SEE qPCR Green ROX L Mix, 2× (HighQu, USA). Primers for EMT markers (Vimentin, E-cadherin, TJP1, and FN1) and GAPDH (as endogenous control) were synthesized by Bio-ProTech based the sequences in TABLE 1. The 2^−ΔΔCt method was used to calculate a relative fold change in gene expression. […] TJP1 is a marker of epithelial cells that disappears during EMT and cancer development. In contrast, FN1 is involved in the occurrence and development of various tumors and acts as a critical gene in gastric cancer.

[2] = tested on: EMT markers in LoVo-OXAR cells; conditions: qRT-PCR
Source text: as §1, §2

LNCaP cells = conditions: 24 hours
Protocol: Human prostate carcinoma LNCaP cells (commercially available from ATCC under the number CRL-1740) were cultured in RPMI-1640 medium (Gibco™, Thermo Fisher Scientific, Waltham, MA, USA) supplemented with 10% FBS.

LoVo-OXAR cells = conditions: 24 hours
TT cells = conditions: 0.1-1000 μg/ml, 72 hours
Protocol: Human medullary thyroid carcinoma TT cells (commercially available from ATCC under the number CRL-1803) were cultured in F12K medium (Gibco™, Thermo Fisher Scientific, Waltham, MA, USA) supplemented with 10% FBS.

[3] = tested on: gemcitabine-resistant CL1 cells (CL1-GEMR cells); conditions: 0-1600 μg/ml, 24 hours
Protocol: (§3) BEAS-2B cells (95102433, Sigma-Aldrich) were cultured in LHC-9 medium (Gibco™, Thermo Fisher Scientific, Waltham, MA, USA).

CL1-parental cells = conditions: 0-1600 μg/ml, 24 hours
Protocol: as §3

BEAS-2B cells = conditions: 0-800 μg/ml, 24 hours
Protocol: as §3

143B cells = experiment: MTT assay, viability of 143B cells; assay type: cell-based, human; conditions: 24 hours
Protocol: Human osteosarcoma 143B cells (commercially available from ATCC under the number CRL-8303) were cultured in DMEM supplemented with 10% FBS and 1% sodium pyruvate.

MIA PaCa-2 cells = conditions: six days
Protocol: (§4) Human pancreatic carcinoma MIA PaCa-2 cells (commercially available from ATCC under the number CRL-1420) were cultured in DMEM supplemented with 10% FBS, 1 mM sodium pyruvate, and 2.5% horse serum. Human pancreatic epithelioid carcinoma PANC-1 cells (commercially available from ATCC under the number CRL-1469) were cultured in DMEM supplemented with 10% FBS and 1 mM sodium pyruvate.

PANC-1 cells = conditions: six days
Protocol: as §4

MDA-MB231 cells = conditions: 0-3000 μg/ml, 24 hours; effect more prominent than in T-47D
Protocol: (§5) Human breast cancer cells T-47D (commercially available from ATCC under the number HTB-133) and MDA-MB231 (commercially available from ATCC under the number HTB-26) were cultured in RPMI 1640 medium supplemented with 10% FBS.

T-47D cells = conditions: 0-3000 μg/ml, 24 hours
Protocol: as §5

Jurkat cells = conditions: 0-1600 μg/ml, 24 hours
Protocol: Human T-acute lymphoblastic leukemia Jurkat cells (resistant to cisplatin and commercially available from ATCC under the number TIB-512) were cultured in RPMI 1640 medium supplemented with 10% FBS.

[4] = tested on: LoVo-OXAR cells tumor xenograft
Protocol: (§6) Six-week-old male NU/NU mice were purchased from Bio LASCO Taiwan Co., Ltd (Taipei, Taiwan) and randomly assigned into four groups (Groups 1 to 4), each containing three mice. […] Tumor volume and mice body weight were measured every three days. […] All mice were sacrificed on day 21, and the tumors were excised and weighed.
(§7) Moreover, the LoVo-parental and LoVo-OXAR tumor tissues were collected and subject to TUNEL assay.

[5] = tested on: LoVo-parental cells tumor xenograft
Protocol: as §6, §7

CC(=O)[O-].CC(=O)[O-].CC(=O)[O-].CC(=O)[O-].CC(=O)[O-].CC(=O)[O-].O.O.O.O.O=[N+]([O-])[O-].[Cr+3].[Fe+3].[Fe+3].[OH-].[OH-] [compound (II)]
E-cadherin mRNA expression [1]: increased
FN1 mRNA expression [1]: decreased
TJP1 mRNA expression [1]: increased
vimentin mRNA expression [1]: decreased
E-cadherin mRNA expression [2]: increased
FN1 mRNA expression [2]: decreased
TJP1 mRNA expression [2]: increased
vimentin mRNA expression [2]: decreased
viability of LNCaP cells (LNCaP cells; 0-1600 μg/ml): reduced the viability of the prostate cancer cells in a dose-dependent manner
IC50 against LNCaP cells (LNCaP cells; MTT): approximately 1033 μg/ml
viability of LoVo-OXAR cells (LoVo-OXAR cells; 0-4000 μg/ml): reduced the viability of both colorectal cancer cells in a dose-dependent manner
IC50 against LoVo-OXAR cells (LoVo-OXAR cells; MTT): about 2000 μg/ml
viability of TT cells (TT cells): reduced the viability of the TT cells in a dose-dependent manner
viability of gemcitabine-resistant CL1 cells [3]: reduced the viability of both lung cancer cells in a dose-dependent manner
viability of CL1-parental cells (CL1-parental cells): reduced the viability of both lung cancer cells in a dose-dependent manner
survival of non-tumorigenic BEAS-2B cells (BEAS-2B cells): did not significantly inhibit the survival of BEAS-2B cells
viability of 143B cells (143B cells; 0-4000 μg/ml): reduced the viability of the osteosarcoma cells in a dose-dependent manner
IC50 against 143B cells (143B cells; MTT): approximately 500 μg/ml
viability of MIA PaCa-2 cells (MIA PaCa-2 cells; 0-2000 μg/ml): reduced the viability of both pancreatic cancer cells in a dose-dependent manner
IC50 against MIA PaCa-2 cells (MIA PaCa-2 cells; MTT): approximately 660 μg/ml
viability of PANC-1 cells (PANC-1 cells; 0-2000 μg/ml): reduced the viability of both pancreatic cancer cells in a dose-dependent manner
IC50 against PANC-1 cells (PANC-1 cells; MTT): ~1700 µg/mL
viability of MDA-MB231 cells (MDA-MB231 cells): reduced the viability of both breast cancer cells in a dose-dependent manner
viability of T-47D cells (T-47D cells): reduced the viability of both breast cancer cells in a dose-dependent manner
viability of Jurkat cells (Jurkat cells): reduced the viability of the Jurkat cells in a dose-dependent manner
apoptosis in tumors (TUNEL) ([4]; LoVo-OXAR tumors): induced significantly higher apoptosis
health of mice after treatment ([4]; LoVo-OXAR xenograft, 100 mg/kg orally every three days): healthy
tumor growth ([4]; LoVo-OXAR xenograft, 100 mg/kg orally every three days, about three weeks): significantly reduced the tumor growth
body weight of the mice ([4]; LoVo-OXAR xenograft, day 1 to day 21, loss attributed to the tumor): body weight loss
apoptosis in tumors (TUNEL) ([5]; LoVo-parental tumors): induced significantly higher apoptosis
health of mice after treatment ([5]; LoVo-parental xenograft, 100 mg/kg orally every three days): healthy
tumor growth ([5]; LoVo-parental xenograft, 100 mg/kg orally every three days, about three weeks): significantly reduced the tumor growth
body weight of the mice ([5]; LoVo-parental xenograft, day 1 to day 21): remained constant
